For this test, the system named is HCT 116 cells. Briefly: Viability assay HCT 116 cells (CellTiter-Glo). The format is cell-based. To be noted: Homo sapiens, HCT-116, 120 h, HCT 116 human colon carcinoma cells, 5 days incubation, CellTiter-Glo luminescence. The procedure:
Viability Assay—HCT 116 Cells
A viability assay was performed using the CellTiter-Glo® Luminescent Cell Viability Assay (see Promega Corporation's Technical Bulletin No. 288, pp. 1-11 [revised 2/04] which is hereby incorporated by reference in its entirety). This assay is a homogeneous method of determining the number of viable cells in culture based on quantitation of the ATP present, an indicator of metabolically active cells. The assay is designed for use with multiwell formats, making it ideal for automated high-throughput screening (HTS), cell proliferation and cytotoxicity assays. The homogeneous assay procedure involves adding a single reagent (containing luciferase, luciferan substrate, and buffer) directly to cells cultured in serum-supplemented medium. Cell washing, removal of medium and multiple pipetting steps are not required. The system detects as few as 15 cells/well in a 384-well format in 10 minutes after adding reagent and mixing.
The homogeneous “add-mix-measure” format results in cell lysis and generation of a luminescent signal proportional to the amount of ATP present. The amount of ATP is directly proportional to the number of cells present in culture. The above-referenced assay generates a “glow-type” luminescent signal, produced by the luciferase reaction, which has a half-life generally greater than five hours, depending on cell type and medium used. The extended half-life eliminates the need to use reagent injectors and provides flexibility for continuous or batch mode processing of multiple plates. The unique homogeneous format avoids errors that may be introduced by other ATP measurement methods that require multiple steps.
HCT 116 cells (human colon carcinoma, ATCC-No. CCl-247) were cultivated in RPMI 1640 medium with GlutaMAX™ I (cell culture media that contains L-Alanyl-L-Glutamine [a stabilized a form/source of L-Glutamine] from Invitrogen, Cat-No. 61870-010), 2.5% Fetal Calf Serum (FCS, Sigma Cat-No. F4135 (FBS)); 100 Units/ml penicillin/100 μg/ml streptomycin (=Pen/Strep from Invitrogen Cat. No. 15140). For the assay the cells were seeded in 384 well plates, 1000 cells per well, in the same medium. The next day the test compounds were added in various concentrations ranging from 30 μM to 0.0015 μM (10 concentrations, 1:3 diluted). After 5 days the viability assay was done according to the instructions of the manufacturer. In brief: the cell-plate was equilibrated to room temperature for approximately 30 minutes and than the reagent (containing luciferase, luciferan substrate, and buffer) was added. The contents were carefully mixed for 15 minutes to induce cell lysis. After 45 minutes the luminescent signal was measured in Victor 2, (scanning multiwell spectrophotometer, Wallac).
Medium: RPMI 1640 with cell culture media containing L-Alanyl-L-Glutamine [GlutaMAX™ I (Invitrogen, Cat-Nr. 61870)], 5% FCS (Sigma Cat.-No. F4135), Pen/Strep (Invitrogen, Cat No. 15140). • HCT116 (ATCC-No. CCl-247): 1000 cells in 60 μl per well of 384 well plate (Greiner 781098, μClear-plate white) • After seeding incubate plates 24 h at 37° C., 5% CO2 2nd. Day: Induction (Treatment with Compounds, 10 Concentrations):
In order to achieve a final concentration of 30 μM as highest concentration […] of 10 mM compound stock solution were added directly to 163 μl media. Then step e) of the dilution procedure described below, was followed.
On the technique in general: In ATP-based viability assays light output follows the ATP content of the culture.

The IC50 is the concentration needed to halve the response being measured. A low value points to inhibition by little substance. In the case of `CC1(C)C(=O)N(CC(=O)NOCc2ccccc2)c2cc3[nH]c(-c4n[nH]c5ccccc45)nc3cc21` [Example 50, N-Benzyloxy-2-[2-(1H-indazol-3-yl)-7,7-dimethyl-6-oxo-6,7-dihydro-3H-imidazo[4,5-f]indol-5-yl]-acetamide], the IC50 was 100 to 1000 nM.

As for `CC1(C)C(=O)N(CCNS(C)(=O)=O)c2cc3[nH]c(-c4n[nH]c5ccccc45)nc3cc21` [Example 61, N-{2-[2-(1H-Indazol-3-yl)-7,7-dimethyl-6-oxo-6,7-dihydro-3H-imidazo[4,5-f]indol-5-yl]-ethyl}-methanesulfonamide], the IC50 lay in the range of 100 to 1000 nM.

As for `C[S+]([O-])CCN1C(=O)C(C)(C)c2cc3nc(-c4n[nH]c5ccccc45)[nH]c3cc21` (stereo not drawn) [Example 64, 2-(1H-Indazol-3-yl)-5-(2-methanesulfinyl-ethyl)-7,7-dimethyl-5,7-dihydro-3H-imidazo[4,5-f]indol-6-one], the IC50 was in the range of 1000 to 10000 nM.

In turn, `CCN1C(=O)C(C)(C)c2cc3nc(-c4n[nH]c5cc(C(N)=O)ccc45)[nH]c3cc21` [Example 110, 3-(5-Ethyl-7,7-dimethyl-6-oxo-3,5,6,7-tetrahydro-imidazo[4,5-f]indol-2-yl)-1H-indazole-6-carboxylic acid amide] displayed an IC50 of 1000 to 10000 nM.

Take `CCN1C(=O)C(C)(C)c2cc3nc(-c4n[nH]c5ccc(C#N)cc45)[nH]c3cc21` [Example 72, 3-(5-Ethyl-7,7-dimethyl-6-oxo-3,5,6,7-tetrahydro-imidazo[4,5-f]indol-2-yl)-1H-indazole-5-carbonitrile]: the IC50 fell in the range of 100 to 1000 nM.

In turn, `CCN1C(=O)C(C)(C)c2cc3nc(-c4n[nH]c5ccc(C(=O)NCc6ccncc6)cc45)[nH]c3cc21` [Example 82, 3-(5-Ethyl-7,7-dimethyl-6-oxo-3,5,6,7-tetrahydro-imidazo[4,5-f]indol-2-yl)-1H-indazole-5-carboxylic acid (pyridin-4-ylmethyl)-amide; compound with acetic acid] registered an IC50 of 1000 to 10000 nM.

The compound `CC1(C)C(=O)N(CC2CC2)c2cc3[nH]c(-c4n[nH]c5ccccc45)nc3cc21` [Example 1, 5-Cyclopropylmethyl-2-(1H-indazol-3-yl)-7,7-dimethyl-5,7-dihydro-3H-imidazo[4,5-f]indol-6-one] displayed an IC50 of 100 to 1000 nM.

In turn, `CCN1C(=O)C(C)(C)c2cc3nc(-c4n[nH]c5ccc(C(=O)OC)cc45)[nH]c3cc21` [Example 101, 3-(5-Ethyl-7,7-dimethyl-6-oxo-3,5,6,7-tetrahydro-imidazo[4,5-f]indol-2-yl)-1H-indazole-5-carboxylic acid methyl ester] came in with an IC50 of 100 to 1000 nM.

`CCN1C(=O)C(C)(C)c2cc3nc(-c4n[nH]c5ccc(C(=O)NCc6ccccc6)cc45)[nH]c3cc21` [Example 79, 3-(5-Ethyl-7,7-dimethyl-6-oxo-3,5,6,7-tetrahydro-imidazo[4,5-f]indol-2-yl)-1H-indazole-5-carboxylic acid benzylamide]: the IC50 lay in the range of 100 to 1000 nM.

On to `CCN1C(=O)C(C)(C)c2cc3nc(-c4n[nH]c5ccc(C(=O)NCc6ccc(F)cc6F)cc45)[nH]c3cc21` [Example 85, 3-(5-Ethyl-7,7-dimethyl-6-oxo-3,5,6,7-tetrahydro-imidazo[4,5-f]indol-2-yl)-1H-indazole-5-carboxylic acid 2,4-difluoro-benzylamide], for which the 50% inhibitory concentration (IC50) fell in the range of 100 to 1000 nM.

With `CC1(C)C(=O)N(CC(=O)NCc2ccc(F)cc2)c2cc3[nH]c(-c4n[nH]c5ccccc45)nc3cc21` [Example 46, N-(4-Fluoro-benzyl)-2-[2-(1H-indazol-3-yl)-7,7-dimethyl-6-oxo-6,7-dihydro-3H-imidazo[4,5-f]indol-5-yl]-acetamide], the IC50 lay in the range of 100 to 1000 nM.

Consider `CCN1C(=O)C(C)(C)c2cc3[nH]c(-c4n[nH]c5ccc(NC(=O)c6ccccn6)cc45)nc3cc21` [Example 116, Pyridine-2-carboxylic acid [3-(5-ethyl-7,7-dimethyl-6-oxo-1,5,6,7-tetrahydro-imidazo[4,5-f]indol-2-yl)-1H-indazol-5-yl]-amide], for which the IC50 lay within 100 to 1000 nM.

Take `CC1(C)C(=O)N(CC(=O)NCc2cccnc2)c2cc3[nH]c(-c4n[nH]c5ccccc45)nc3cc21` [Example 41, 2-[2-(1H-Indazol-3-yl)-7,7-dimethyl-6-oxo-6,7-dihydro-3H-imidazo[4,5-f]indol-5-yl]-N-pyridin-3-ylmethyl-acetamide]: the IC50 lay within 100 to 1000 nM.

For the compound `COc1cc(CNC(=O)CN2C(=O)C(C)(C)c3cc4nc(-c5n[nH]c6ccccc56)[nH]c4cc32)cc(OC)c1` [Example 47, N-(3,5-Dimethoxy-benzyl)-2-[2-(1H-indazol-3-yl)-7,7-dimethyl-6-oxo-6,7-dihydro-3H-imidazo[4,5-f]indol-5-yl]-acetamide], the IC50 was in the range of 100 to 1000 nM.

In the case of `CCN1C(=O)C(C)(C)c2cc3nc(-c4n[nH]c5ccc(C(=O)NCc6cccnc6)cc45)[nH]c3cc21` [Example 81, 3-(5-Ethyl-7,7-dimethyl-6-oxo-3,5,6,7-tetrahydro-imidazo[4,5-f]indol-2-yl)-1H-indazole-5-carboxylic acid (pyridin-3-ylmethyl)-amide; compound with acetic acid], the IC50 is 100 to 1000 nM.

In turn, `CCN1C(=O)C(C)(C)c2cc3[nH]c(-c4n[nH]c5ccc(NS(=O)(=O)c6cccc(Cl)c6)cc45)nc3cc21` [Example 138, 3-Chloro-N-[3-(5-ethyl-7,7-dimethyl-6-oxo-1,5,6,7-tetrahydro-imidazo[4,5-f]indol-2-yl)-1H-indazol-5-yl]-benzenesulfonamide] showed an IC50 of 100 to 1000 nM.

For the compound `CCN1C(=O)C(C)(C)c2cc3nc(-c4n[nH]c5ccc(C(C)=O)cc45)[nH]c3cc21` [Example 103, 2-(5-Acetyl-1H-indazol-3-yl)-5-ethyl-7,7-dimethyl-5,7-dihydro-3H-imidazo[4,5-f]indol-6-one], the IC50 is 100 to 1000 nM.

Compound `CCN1C(=O)C(C)(C)c2cc3nc(-c4n[nH]c5ccc(C(=O)N6CCSC6)cc45)[nH]c3cc21` [Example 96, 5-Ethyl-7,7-dimethyl-2-[5-(thiazolidine-3-carbonyl)-1H-indazol-3-yl]-5,7-dihydro-3H-imidazo[4,5-f]indol-6-one] gave an IC50 of 100 to 1000 nM.

On to `CCN1C(=O)C(C)(C)c2cc3[nH]c(-c4n[nH]c5ccc(NS(=O)(=O)c6ccc(F)cc6)cc45)nc3cc21` [Example 137, N-[3-(5-Ethyl-7,7-dimethyl-6-oxo-1,5,6,7-tetrahydro-imidazo[4,5-f]indol-2-yl)-1H-indazol-5-yl]-4-fluoro-benzenesulfonamide], for which the IC50 is 100 to 1000 nM.

For the compound `CC1(C)C(=O)Nc2cc3[nH]c(-c4n[nH]c5ccc(C(=O)NCc6ccccc6)cc45)nc3cc21` [Example 77, 3-(7,7-Dimethyl-6-oxo-3,5,6,7-tetrahydro-imidazo[4,5-f]indol-2-yl)-1H-indazole-5-carboxylic acid benzylamide], the IC50 fell in the range of 100 to 1000 nM.

In the case of `CCN1C(=O)CC(C)(C)c2cc3nc(-c4n[nH]c5ccccc45)[nH]c3cc21` [Example 14, 5-Ethyl-2-(1H-indazol-3-yl)-8,8-dimethyl-3,5,7,8-tetrahydro-imidazo[4,5-g]quinolin-6-one], the IC50 was 640 nM.

The compound `CC(C)N1C(=O)C(C)(C)c2cc3[nH]c(-c4n[nH]c5ccc(NS(=O)(=O)c6ccc(F)cc6)cc45)nc3cc21` [Example 142, 4-Fluoro-N-[3-(5-isopropyl-7,7-dimethyl-6-oxo-1,5,6,7-tetrahydro-imidazo[4,5-f]indol-2-yl)-1H-indazol-5-yl]-benzenesulfonamide] registered an IC50 of 100 to 1000 nM.

`CCN1C(=O)C(C)(C)c2cc3nc(-c4n[nH]c5cc(C(=O)Nc6ccccc6)ccc45)[nH]c3cc21` [Example 108, 3-(5-Ethyl-7,7-dimethyl-6-oxo-3,5,6,7-tetrahydro-imidazo[4,5-f]indol-2-yl)-1H-indazole-6-carboxylic acid phenylamide] registered an IC50 of 100 to 1000 nM.

`CCN1C(=O)C(C)(C)c2cc3[nH]c(-c4n[nH]c5ccc(NC(=O)OCc6ccccc6)cc45)nc3cc21` [Example 130, [3-(5-Ethyl-7,7-dimethyl-6-oxo-1,5,6,7-tetrahydro-imidazo[4,5-f]indol-2-yl)-1H-indazol-5-yl]-carbamic acid benzyl ester] had an IC50 of 100 to 1000 nM.
